Data: US11396523B2, “Proton activated atomic medicine” (priority 2017, dated 2022)

Assays:
[1] = system: glioblastoma cell line U87-MG; assay: in vitro colony assay (survival fraction) after proton beam irradiation; details: for cytotoxicity / cell kill compared to the proton beam treatment alone: 8 Gye single fraction protons plus compound, U87 cells exposed 96 hours before irradiation
Procedure: FIG. 1 is a graphic representation of the dose of irradiation (x-axis) versus the log survival fraction (y-axis) of log phase U87 human glioblastoma cells. Three groups were used. […] This molecule is synthesized by replacing the 2 position of the aromatic ring of the nitrogenous base with oxygen-18. When these cells are treated with protons, there is a chemical transmutation at the atomic level where upon the oxygen-18 atom is changed into radioactive fluorine-18.
Physiologic serum concentrations in normal and cancer patients the physiologic serum concentration is ˜0.3-1.2 μM. The cells were irradiated with 2 and 8 Gye with 160 MeV protons single fraction and cell death/survival was determined using a colony assay and calculation of survival fraction.

[2] = large doses, human cancer patients; cited from earlier work

Compound	increased cell kill ([1]; 0.5 microgram HTd exposed for 96 hours in vitro, 8 Gye single fraction protons, versus protons alone (FIG. 1))	cytotoxicity / cell kill compared to the proton beam treatment alone [1]	cytotoxicity / cell kill compared to the proton beam treatment alone ([1]; listed as heavy thymidine)	radiation sensitization ([1]; plus a single dose of 8 Gye of protons)	effect on cell survival ([1]; same concentration X time exposure (0.5, 96 hours) plus 8 Gye protons)	concentrations in the serum achieved [2]
C2-^18O-Thymidine [2-HTd]	about half a log	increased cytotoxicity	greater cell kill	proton specific radiation sensitization	–	–
Cc1cn([C@H]2C[C@H](O)[C@@H](CO)O2)c(=O)[nH]c1=O [Thymidine, reference compound]	–	–	–	–	no effect	milli-molar range
